Tested on: Alternaria brassicae
Assay: In vivo test of activity on Alternaria brassicae (crucifer black spot) on radish
Conditions: preventive spray 24 h before inoculation
Method: In Vivo Test of Activity on Alternaria brassicae (Crucifer Black Spot)
An aqueous solution of the active material to be tested is prepared at a concentration of 2 g/l by grinding in solution 1 or solution 2:
• Water • Tween 80 diluted to 10% in water: 5 μl/mg of active material • Clay in a sufficient amount for active material+clay to equal 100 mg; Solution 2
Concentrated solution containing surfactants and adjuvants conventionally used: 200 μl/mg of active material.
The aqueous solution is diluted with water so as to obtain the desired concentration.
Radishes of the Pernot variety are sown in a 50/50 pozzolan/peat substrate and maintained at 18-22° C. The treatment is carried out by spraying the aqueous suspension. The untreated control plants are sprayed with water. 24 hours after treatment, the plants are inoculated by spraying a solution of Alternaria brassicae spores (40 000 spores/ml) originating from a 12-day culture.
The radish plants are then maintained at 18-20° C. in a humid atmosphere. The effectiveness of the products is evaluated relative to the control plants after seven to eight days of incubation.
The effectiveness of the molecules is estimated, at 500 g/ha, 250 g/ha or 330 ppm, by the percentage of control relative to untreated plants. Under these conditions, good effectiveness is defined as more than 80% effectiveness. Average effectiveness is defined as an effectiveness between 50 and 80%. Poor effectiveness is defined as an effectiveness between 10 and 50% and zero effectiveness is defined as less than 10% effectiveness.

| Structure (SMILES) | effectiveness (percentage of control relative to untreated plants) (330 ppm) | other results |
| --- | --- | --- |
| COc1ccc(C(=O)NCCc2ncc(C(F)(F)F)cc2Cl)cc1OC [Compound A-13] |  | effectiveness (percentage of control relative to untreated plants) (500 g/ha): good to average |
| COc1cc(OC)cc(C(=O)NCCc2ncc(C(F)(F)F)cc2Cl)c1 [Compound A-14] |  | effectiveness (percentage of control relative to untreated plants) (500 g/ha): good to average |
| O=C(NCCc1ncc(C(F)(F)F)cc1Cl)c1cccc(C(F)(F)F)c1 [Compound A-28] |  | effectiveness (percentage of control relative to untreated plants) (250 g/ha): good to average |
| O=C(NCCc1ncc(C(F)(F)F)cc1Cl)c1ccccc1[N+](=O)[O-] [Compound A-29] |  | effectiveness (percentage of control relative to untreated plants) (250 g/ha): good to average |
| O=C(NCCc1ncc(C(F)(F)F)cc1Cl)c1cc(F)c(F)cc1F [Compound A-41] |  | effectiveness (percentage of control relative to untreated plants) (250 g/ha): good to average |
| O=C(NCCc1ncc(C(F)(F)F)cc1Cl)c1cccc(Cl)c1Cl [Compound A-48] | good to average |  |
| O=C(NCCc1ncc(C(F)(F)F)cc1Cl)c1cc(Cl)ccc1Cl [Compound A-49] | good to average |  |
| O=C(NCCc1ncc(C(F)(F)F)cc1Cl)c1ccccc1O [Compound A-52] | good to average |  |
| Cc1cccc(C(=O)NCCc2ncc(C(F)(F)F)cc2Cl)c1C [Compound A-60] | good to average |  |
| Cc1ccc(C)c(C(=O)NCCc2ncc(C(F)(F)F)cc2Cl)c1 [Compound A-62] | good to average |  |
| O=C(NCCc1ncc(C(F)(F)F)cc1Cl)c1cc(C(F)(F)F)ccc1C(F)(F)F [Compound A-72] | good to average |  |
| O=C(NCCc1ncc(C(F)(F)F)cc1Cl)c1ccc(C(F)(F)F)cc1C(F)(F)F [Compound A-74] | good to average |  |
| O=C(NCCc1ncc(C(F)(F)F)cc1Cl)c1c(C(F)(F)F)ccc(Cl)c1F [Compound A-75] | good to average |  |
| Cc1c(C(=O)NCCc2ncc(C(F)(F)F)cc2Cl)cccc1[N+](=O)[O-] [Compound A-77] | good to average |  |
| Cc1ccc([N+](=O)[O-])cc1C(=O)NCCc1ncc(C(F)(F)F)cc1Cl [Compound A-79] | good to average |  |
| Cc1cc(Br)ccc1C(=O)NCCc1ncc(C(F)(F)F)cc1Cl [Compound A-80] | good to average |  |
| COc1cc(OC)c(C(=O)NCCc2ncc(C(F)(F)F)cc2Cl)cc1OC [Compound A-84] | good to average |  |
| COc1ccc(OC)c(C(=O)NCCc2ncc(C(F)(F)F)cc2Cl)c1 [Compound A-85] | good to average |  |
| CCOc1ccccc1C(=O)NCCc1ncc(C(F)(F)F)cc1Cl [Compound A-86] | good to average |  |
| CCCOc1ccccc1C(=O)NCCc1ncc(C(F)(F)F)cc1Cl [Compound A-91] | good to average |  |

| Structure (SMILES) | effectiveness (percentage of control relative to untreated plants) (330 ppm) | other results |
| --- | --- | --- |
| COc1ccc(C(C)(C)C)cc1C(=O)NCCc1ncc(C(F)(F)F)cc1Cl [Compound A-92] | good to average |  |
| CSc1ccc(Cl)c(C(=O)NCCc2ncc(C(F)(F)F)cc2Cl)c1 [Compound A-99] | good to average |  |
| O=C(NCCc1ncc(C(F)(F)F)cc1Cl)c1cc(Cl)ccc1Br [Compound A-100] | good to average |  |
| O=C(NCCc1ncc(C(F)(F)F)cc1Cl)c1cc(F)c(F)cc1Cl [Compound A-107] | good to average |  |
| O=C(NCCc1ncc(C(F)(F)F)cc1Cl)c1ccc(Cl)cc1Br [Compound A-110] | good to average |  |
| O=C(NCCc1ncc(C(F)(F)F)cc1Cl)c1c(F)cccc1Br [Compound A-112] | good to average |  |
| O=C(NCCc1ncc(C(F)(F)F)cc1Cl)c1c(F)ccc(F)c1Cl [Compound A-113] | good to average |  |
| O=C(NCCc1ncc(C(F)(F)F)cc1Cl)c1cccc(F)c1Br [Compound A-122] | good to average |  |
| Cc1cc(C(=O)NCCc2ncc(C(F)(F)F)cc2Cl)c(Cl)c(C)c1F [Compound A-123] | good to average |  |
| Cc1ccc(F)c(C(=O)NCCc2ncc(C(F)(F)F)cc2Cl)c1Cl [Compound A-124] | good to average |  |
| CSc1cc(Cl)ccc1C(=O)NCCc1ncc(C(F)(F)F)cc1Cl [Compound A-127] | good to average |  |
| CS(=O)(=O)c1cc(Cl)ccc1C(=O)NCCc1ncc(C(F)(F)F)cc1Cl [Compound A-128] | good to average |  |
| CS(=O)(=O)c1ccc(C(=O)NCCc2ncc(C(F)(F)F)cc2Cl)c(Cl)c1O [Compound A-136] | good to average |  |
| CS(=O)(=O)c1ccc(C(=O)NCCc2ncc(C(F)(F)F)cc2Cl)c(Br)c1 [Compound A-137] | good to average |  |
| CS(=O)(=O)c1ccc(C(=O)NCCc2ncc(C(F)(F)F)cc2Cl)c(C(F)(F)F)c1 [Compound A-138] | good to average |  |
| CS(=O)(=O)c1cc(C(F)(F)F)ccc1C(=O)NCCc1ncc(C(F)(F)F)cc1Cl [Compound A-139] | good to average |  |
| O=C(NCCc1ncc(C(F)(F)F)cc1Cl)c1ccc(Cl)c(Br)c1 [Compound A-141] | good to average |  |
| CSc1ccc(C(=O)NCCc2ncc(C(F)(F)F)cc2Cl)c(C)c1 [Compound A-142] | good to average |  |
| CSc1cc(C(F)(F)F)ccc1C(=O)NCCc1ncc(C(F)(F)F)cc1Cl [Compound A-143] | good to average |  |
| CSc1c(C(=O)NCCc2ncc(C(F)(F)F)cc2Cl)ccc(Cl)c1Cl [Compound A-144] | good to average |  |

| Structure (SMILES) | effectiveness (percentage of control relative to untreated plants) (330 ppm) | other results |
| --- | --- | --- |
| CSc1c(C(=O)NCCc2ncc(C(F)(F)F)cc2Cl)ccc(Cl)c1Br [Compound A-146] | good to average |  |
| O=C(NCCc1ncc(C(F)(F)F)cc1Cl)c1ccc(Cl)c(C(F)(F)F)c1 [Compound A-147] | good to average |  |
| COc1c(F)ccc(C(=O)NCCc2ncc(C(F)(F)F)cc2Cl)c1SC [Compound A-148] | good to average |  |
| CSc1ccc(C(=O)NCCc2ncc(C(F)(F)F)cc2Cl)c(Br)c1 [Compound A-150] | good to average |  |
| CC(C)c1c(Br)cccc1C(=O)NCCc1ncc(C(F)(F)F)cc1Cl [Compound A-151] | good to average |  |
| CCc1cc(Br)ccc1C(=O)NCCc1ncc(C(F)(F)F)cc1Cl [Compound A-152] | good to average |  |
| Cc1cc(C(=O)NCCc2ncc(C(F)(F)F)cc2Cl)c([N+](=O)[O-])cc1C [Compound A-156] | good to average |  |
| O=C(NCCc1ncc(C(F)(F)F)cc1Cl)c1ccc(I)c(Br)c1 [Compound A-158] | good to average |  |
| Cc1c(C(=O)NCCc2ncc(C(F)(F)F)cc2Cl)ccc(Cl)c1F [Compound A-162] | good to average |  |
| CSc1c(F)ccc(C(=O)NCCc2ncc(C(F)(F)F)cc2Cl)c1F [Compound A-165] | good to average |  |
| CSc1c(Br)ccc(C(=O)NCCc2ncc(C(F)(F)F)cc2Cl)c1F [Compound A-168] | good to average |  |
| O=C(NCCc1ncc(C(F)(F)F)cc1Cl)c1cc(I)c(O)c(I)c1 [Compound A-169] | good to average |  |
| COc1cc([N+](=O)[O-])ccc1C(=O)NCCc1ncc(C(F)(F)F)cc1Cl [Compound A-171] | good to average |  |
| O=C(NCCc1ncc(C(F)(F)F)cc1Cl)c1ccc(Cl)cc1I [Compound A-176] | good to average |  |
| Cc1ccc(I)c(C(=O)NCCc2ncc(C(F)(F)F)cc2Cl)c1 [Compound A-177] | good to average |  |
| Cc1cccc(C(=O)NCCc2ncc(C(F)(F)F)cc2Cl)c1Cl [Compound A-178] | good to average |  |
| Cc1cccc(C(=O)NCCc2ncc(C(F)(F)F)cc2Cl)c1I [Compound A-179] | good to average |  |
| Cc1cccc(C(=O)NCCc2ncc(C(F)(F)F)cc2Cl)c1Br [Compound A-180] | good to average |  |
| COc1cc(Cl)c(C(=O)NCCc2ncc(C(F)(F)F)cc2Cl)cc1OC [Compound A-181] | good to average |  |
